In patent US9732088B2, “C2-carbocyclic iminothiazine dioxides as BACE inhibitors, compositions, and their use” (Merck Sharp & Dohme Corp., priority 2014, dated 2017) one finds Ki and efflux ratio data, which are given here for eight compounds.

A word on the Ki: it is a measure of affinity in units of concentration, obtained from inhibition or displacement.

Series [1] concerns the target soluble human BACE-1 catalytic domain (Homo sapiens (Human), UniProt P56817). As to the kind of experiment: BACE-1 Ki Assay (BACE-1 HTRF FRET Assay). Type of series: biochemical. The conditions noted are these: Assay 1; Ki calculated from IC50 by Cheng-Prusoff. An outline of the steps: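 Recombinant human BACE-1 catalytic domain (3 nM in 10 μl) preincubated with inhibitor 30 min at 30° C, pH 5.0 acetate buffer with 7.5% DMSO, then 200 nM final QSY7-APPswe-Eu substrate for 1.5 h; 620 nm time-resolved fluorescence read. IC50 from nonlinear regression converted to Ki by Cheng-Prusoff using Km 8 μM.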

For another series, the target named is rat Mdr1a (P-gp) (Rattus norvegicus, UniProt Q6PSM0). As to the kind of experiment: P-Glycoprotein (P-gp) Efflux Susceptibility Assay. Format: in vitro ADME. The note with it: LLC-PK1, pH 7.4; rat LLC-Mdr1a cells, B-A/A-B Papp ratio at 3 h; method 0.1 μM; read-out: P-gp efflux assay (rMDR1a BAAB). The protocol: Assay 6: P-Glycoprotein (P-Gp) Efflux Susceptibility Assay
As P-gp is expressed at the blood-brain-barrier, among other tissues, lower P-gp efflux ratio values are associated with a better ability to cross the blood-brain-barrier to reach the site of BACE-1 expression in the central nervous system. P-gp efflux ratios are measured in cellular assays using cell lines that express P-gp from a number of species including rat, monkey, and human. The following assay was used to measure the rat P-gp efflux ratios, which are believed to be the most sensitive measure of P-gp susceptibility, for the compounds of the invention (test compounds) reported in the tables below.
The bidirectional transport of test compounds was conducted across pig kidney epithelial (LLC-PK1) cell monolayers. Native LLC-PK1 cells were obtained from The Netherlands Cancer Institute (Amsterdam, The Netherlands), and used under a license agreement. LLC-PK1 cells expressing a cDNA encoding rat Mdr1a (rat LLC-Mdr1a) were made in-house by stable transfection of LLC-PK1 cells with a rat MDR1 cDNA. LLC-PK1 and rat LLC-Mdr1a cell lines were cultured in 96-well transwell culture plates. […] Substrate solution (150 μL) was added to either the apical (A) or the basolateral (B) compartment of the culture plate, and buffer (150 μL; HBSS, 10 mM HEPES, pH 7.4) was added to the compartment opposite to that containing the compound. At t=3 h, 50 μL samples were removed from both sides of monolayers dosed with test compound and placed in 96 well plates, internal standard (50 μL 1 μM labetolol) was added to the samples. Samples were analyzed by LC/MS/MS using an Applied Biosystems SCIEX API 5000 triple quadruple mass spectrometry (Concord, ON, Canada) with a TurbolonSpray ion source in the positive ion mode. A Thermo Scientific Transcend LX-2 system (Franklin, Mass.) was coupled to the API 5000 with a flow rate of 800 μL/min to direct sample into the mass spectrometer. A Waters ACQUITY UPLC T3 (2×30 mm, 1.7 μm; Milford, Mass.) column was used for sample analysis. Mobile phase A consisted of 0.1% formic acid in water. Mobile phase B was acetonitrile with 0.1% formic acid. A gradient elution program was utilized where the solvent composition was held at 5% B for 0.25 min, changed from 5% B to 95% B at 0.25 min, and followed by holding at 95% B for 0.5 min, then, went back to 5% B at 0.75 min. The column was then re-equilibrated at the original solvent composition for 0.5 min. Mass spectrometric detection was accomplished by multiple reaction monitoring (MRM) of transitions unique to each compound. Sample concentration was obtained by extrapolation from the standard curve. Verapamil (1 μM) was used as the positive control to assess the functional activity of Pgp. The experiment was performed in triplicate.
The Papp was calculated by the following formula for samples taken at t=3 h:
[formula] where “Volume of Receptor Chamber” is 0.15 mL, “Area of membrane” is 0.11 cm^2, the “Initial Concentration” is the sum of the concentration measured in the donor compartment plus the concentration measured in the receiver compartment at t=3 h, “Δ in Concentration” is the concentration in the receiver compartment at 3 h, and “Δ in Time” is the incubation time (3×60×60=10800 s). Papp was expressed as 10^−6 cm/s.
The Papp reported in the table below is the average of the Papp for transport from A to B and Papp for transport from B to A at t=3 hr.
The B-A/A-B ratio (BAAB) was calculated by dividing the Papp from B to A by the Papp from A to B at t=3 h: […]

Sequence of soluble human BACE-1 catalytic domain (P56817 75-416): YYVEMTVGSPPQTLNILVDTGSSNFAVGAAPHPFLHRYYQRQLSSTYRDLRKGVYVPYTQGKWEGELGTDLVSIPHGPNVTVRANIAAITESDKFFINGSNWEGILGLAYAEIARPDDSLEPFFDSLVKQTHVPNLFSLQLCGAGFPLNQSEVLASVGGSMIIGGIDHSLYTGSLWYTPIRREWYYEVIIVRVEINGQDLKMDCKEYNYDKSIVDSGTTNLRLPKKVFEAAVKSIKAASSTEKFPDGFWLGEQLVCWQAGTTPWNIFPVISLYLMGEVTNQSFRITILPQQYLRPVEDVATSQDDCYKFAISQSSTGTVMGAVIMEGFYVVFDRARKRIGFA
Sequence of rat Mdr1a (P-gp) (Q6PSM0 1-1272): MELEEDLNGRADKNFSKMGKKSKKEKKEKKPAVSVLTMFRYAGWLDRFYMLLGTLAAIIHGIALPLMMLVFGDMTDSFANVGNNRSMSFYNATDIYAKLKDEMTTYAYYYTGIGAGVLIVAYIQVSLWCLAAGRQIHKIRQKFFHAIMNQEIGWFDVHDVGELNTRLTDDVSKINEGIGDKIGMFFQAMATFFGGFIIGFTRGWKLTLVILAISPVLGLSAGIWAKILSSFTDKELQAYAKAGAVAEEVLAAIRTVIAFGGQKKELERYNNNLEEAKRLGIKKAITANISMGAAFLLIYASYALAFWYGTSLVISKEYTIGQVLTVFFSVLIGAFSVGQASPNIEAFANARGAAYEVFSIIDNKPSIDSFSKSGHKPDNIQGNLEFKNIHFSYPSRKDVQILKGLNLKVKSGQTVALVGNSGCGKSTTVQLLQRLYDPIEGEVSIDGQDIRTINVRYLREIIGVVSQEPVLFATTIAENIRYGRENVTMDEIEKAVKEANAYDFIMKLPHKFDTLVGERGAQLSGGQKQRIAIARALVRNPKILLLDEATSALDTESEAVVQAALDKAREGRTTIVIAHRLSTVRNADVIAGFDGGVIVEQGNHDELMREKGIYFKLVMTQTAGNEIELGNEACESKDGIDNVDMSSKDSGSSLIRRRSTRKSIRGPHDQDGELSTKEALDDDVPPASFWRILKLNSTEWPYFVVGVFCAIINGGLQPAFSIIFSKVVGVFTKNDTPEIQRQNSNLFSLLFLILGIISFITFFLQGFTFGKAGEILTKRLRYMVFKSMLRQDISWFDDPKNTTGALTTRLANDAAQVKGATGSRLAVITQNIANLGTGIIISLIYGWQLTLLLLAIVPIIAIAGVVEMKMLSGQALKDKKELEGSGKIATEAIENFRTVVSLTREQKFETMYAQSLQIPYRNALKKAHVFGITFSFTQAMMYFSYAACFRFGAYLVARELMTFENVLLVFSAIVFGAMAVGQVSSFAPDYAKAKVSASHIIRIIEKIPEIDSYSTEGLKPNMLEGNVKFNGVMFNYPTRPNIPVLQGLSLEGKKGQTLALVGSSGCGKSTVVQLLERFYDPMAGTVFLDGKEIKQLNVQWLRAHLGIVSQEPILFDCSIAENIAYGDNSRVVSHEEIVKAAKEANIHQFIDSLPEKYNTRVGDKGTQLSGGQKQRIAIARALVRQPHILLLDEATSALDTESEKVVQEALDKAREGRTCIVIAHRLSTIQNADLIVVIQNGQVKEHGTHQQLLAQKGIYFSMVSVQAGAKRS

With `COc1cnc2c(Nc3ccc(F)c([C@]4(C)CS(=O)(=O)[C@@](C)(C5CC5)C(N)=N4)c3)nccc2c1` [Example 14, N-{3-[(3R,6S)-6-cyclopropyl-5-imino-3,6-dimethyl-1,1-dioxidothiomorpholin-3-yl]-4-fluorophenyl}-3-methoxy-1,7-naphthyridin-8-amine], in series [1], the Ki was 9.3 nM. Moreover, at rat Mdr1a (P-gp), the efflux ratio at 3 h stood at 2.9. For the compound `COc1cnc2c(Nc3ccc(F)c([C@]4(C)CS(=O)(=O)C(C)(C)C(N)=N4)c3)nccc2n1` [Ex 47 of WO2014059185, reference compound], the Ki in series [1] was 3.3 nM. The efflux ratio at 3 h on rat Mdr1a (P-gp) was found to be 7.9. The corresponding values for `C[C@@]1(c2cc(Nc3nccc4cc(C#N)cnc34)ccc2F)CS(=O)(=O)[C@@](C)(C2CC2)C(N)=N1` [Example 18, 8-({3-[(3R,6S)-6-cyclopropyl-5-imino-3,6-dimethyl-1,1-dioxidothiomorpholin-3-yl]-4-fluorophenyl}amino)-1,7-naphthyridine-3-carbonitrile] are 1.6 nM and 11. As for `CC1(C)C(=N)N[C@](C)(c2cc(Nc3noc4cc(F)cnc34)ccc2F)CS1(=O)=O` [WO′426 Ex. 30b, reference compound], in series [1], the Ki is 19.2 nM. Regarding `COc1cnc2c(Nc3ccc(F)c([C@]4(C)CS(=O)(=O)[C@@](C)(C5CC5)C(N)=N4)c3)ncnc2n1` [Example 22, (2S,5R)-2-cyclopropyl-5-(2-fluoro-5-((7-methoxypteridin-4-yl)amino)phenyl)-3-imino-2,5-dimethylthiomorpholine 1,1-dioxide], the Ki in series [1] was 14 nM. Besides, the efflux ratio at 3 h at rat Mdr1a (P-gp) is 26.

As to `C[C@@]1(c2cc(Nc3ncnc4cc(C#N)cnc34)ccc2F)CS(=O)(=O)[C@@](C)(C2CC2)C(N)=N1` [Example 16, 4-({3-[(3R,6S)-6-cyclopropyl-5-imino-3,6-dimethyl-1,1-dioxidothiomorpholin-3-yl]-4-fluorophenyl}amino)pyrido[3,2-d]pyrimidine-7-carbonitrile], the Ki in series [1] is 2.2 nM. Besides, at rat Mdr1a (P-gp), the efflux ratio at 3 h is 31. The corresponding values for `C[C@@]1(c2nc(Nc3nccc4cc(C#N)cnc34)ncc2F)CS(=O)(=O)[C@@](C)(C2CC2)C(N)=N1` [Example 5, 8-({4-[(3R,6S)-6-cyclopropyl-5-imino-3,6-dimethyl-1,1-dioxidothiomorpholin-3-yl]-5-fluoropyrimidin-2-yl}amino)-1,7-naphthyridine-3-carbonitrile] are 8.7 nM and 31. The like results for `COc1cnc2c(Nc3cc([C@]4(C)CS(=O)(=O)[C@@](C)(C5CC5)C(N)=N4)c(F)cn3)nccc2c1` [Example 6, N-{4-[(3R,6S)-6-cyclopropyl-5-imino-3,6-dimethyl-1,1-dioxidothiomorpholin-3-yl]-5-fluoropyridin-2-yl}-3-methoxy-1,7-naphthyridin-8-amine] were, in that order, 2.6 nM and 1.5.
